Measured values taken from ChEMBL document CHEMBL1154494, “A highly sensitive fluorogenic probe for cytochrome P450 activity in live cells” (Bioorg Med Chem Lett, 2008).
The source made the active and inactive calls. No cut-off for these calls is given here.

B1: Cytochrome P450 1A1 (Homo sapiens) (protein)
chain: MLFPISMSATEFLLASVIFCLVFWVIRASRPQVPKGLKNPPGPWGWPLIGHMLTLGKNPHLALSRMSQQYGDVLQIRIGSTPVVVLSGLDTIRQALVRQGDDFKGRPDLYTFTLISNGQSMSFSPDSGPVWAARRRLAQNGLKSFSIASDPASSTSCYLEEHVSKEAEVLISTLQELMAGPGHFNPYRYVVVSVTNVICAICFGRRYDHNHQELLSLVNLNNNFGEVVGSGNPADFIPILRYLPNPSLNAFKDLNEKFYSFMQKMVKEHYKTFEKGHIRDITDSLIEHCQEKQLDENANVQLSDEKIINIVLDLFGAGFDTVTTAISWSLMYLVMNPRVQRKIQEELDTVIGRSRRPRLSDRSHLPYMEAFILETFRHSSFVPFTIPHSTTRDTSLKGFYIPKGRCVFVNQWQINHDQKLWVNPSEFLPERFLTPDGAIDKVLSEKVIIFGMGKRKCIGETIARWEVFLFLAILLQRVEFSVPLGVKVDMTPIYGLTMKHACCEHFQMQLRS

How the values were obtained:
[1] = tested on: A549; experiment: Inhibition of CYP1A1 level in human A549 cells at 10 uM after 1 hr using Hoechst staining by fluorogenic assay in presence of CYP1A1 inducer TCDD and CYP1A1 inhibitior resveratrol; format: functional, cell-based
[2] = tested on: A549; experiment: Induction of CYP1A1 level in human A549 cells at 10 uM after 1 hr using Hoechst staining by fluorogenic assay in presence of CYP1A1 inducer TCDD; format: functional, cell-based
[3] = tested on: A549; experiment: Induction of CYP1A1 level in human A549 cells at 10 uM after 1 hr using Hoechst staining by fluorogenic assay; format: functional, cell-based
[4] = substrate: CCOc1cc(C)cc(C)c1C(C)(C)CC(=O)Nc1ccc2c(c1)Oc1cc(NC(=O)N3CCOCC3)ccc1C21Oc2ccccc2C1=O; experiment: Activity of human CYP1A1 by fluorogenic assay; format: ADME

Molecule | Activity [1] | Activity [2] | Activity [3] | Km [4] [µM] | kcat/Km [4] [M⁻¹ s⁻¹]
CCOc1cc(C)cc(C)c1C(C)(C)CC(=O)Nc1ccc2c(c1)Oc1cc(NC(=O)N3CCOCC3)ccc1C21OC(=O)c2ccccc21 (stereo not given) | Active | Active | Active |  | 
B1 |  |  |  | 0.09 | 8800
